Test system: Spodoptera frugiperda
Assay: Laboratory test of 2nd instar larva of Spodoptera frugiperda on maize leaves (mortality)
Assay type: in vivo

CNC(=O)c1cc(Cl)cc(C)c1NC(=O)c1cc(Br)nn1-c1ncccc1Cl [Compound 2, 3-bromo-N-[4-chloro-2-methyl-6-[(methylamino)carbonyl]phenyl]-1-(3-chloro-2-pyridinyl)-1H-pyrazole-5-carboxamide]
concentration per g of leaf tissue resulting in 50% mortality within 72 h (50% mortality within 72 h): 0.033 micrograms per g of leaf tissu | concentration per g of tissue needed to achieve 100% mortality within 72 h (100% mortality within 72 h): 0.037 micrograms per g of tissue

— patent US9149039B2, “Anthranilic diamide/polymer propagule-coating compositions” (E I DU PONT DE NEMOURS AND COMPANY, priority 2011, dated 2015)
